The source of these data is patent US20140309192A1, “MODULATORS OF THE G PROTEIN-COUPLED MAS RECEPTOR AND THE TREATMENT OF DISORDERS RELATED THERETO” (ARENA PHARMACEUTICALS, INC., priority 2011, published 2014).

The test system of one assay is control HEK293 cells. As to the kind of experiment: HTRF IP1 assay in control HEK293 cells. Type of assay: cell-based. As to conditions: IP assay. An excerpt:
Human and rat Mas receptors were either transiently or stably expressed in HEK293 cells. For transient transfections, human or rat Mas in pHM6 vector were transfected into HEK293 cells using Lipofectamine® (Invitrogen #18324-012). HEK293 cells transfected with empty pHM6 vector were used as a control. For generation of stable cell lines, cDNA expression plasmids encoding human or rat Mas genes and the neo^r gene were transfected into HEK293 cells (ATCC# CRL-1573) using Lipofectamine® (Invitrogen) according to the manufacturer's instructions. Stable receptor expressing pools were then generated over 3 weeks by standard techniques in the presence of 500 μg/mL Geneticin® (Gibco). Individual receptor stable pools were dilution cloned using standard techniques and clones were comparatively evaluated in inositol phosphate accumulation assays. Preferred clones were banked and cultured as needed. HEK293 cells were used as controls. The 384 well IP-One HTRF® Assay (Cisbio #62P1APEJ) was performed as described by the manufacturer's protocol. Cells were plated in at 100,000 cells per well in 15 μL DMEM (Gibco #11960) and incubated in a CO2 incubator at 37° C. for 2 h. […] IP1 levels in each well were calculated according to the standard curves on each plate. […]

For assay [1], the system named is isolated perfused mouse hearts. The assay is described as follows: Ex vivo coronary flow, Langendorff perfused isolated mouse hearts. To be noted: 1 μM. As for the experimental part: (§1) Coronary flow was measured in male Mas^−/− and Mas^+/+ mice, and in male Sprague-Dawley rats using Langendorff perfused isolated hearts. Freshly isolated hearts were placed on a Langendorff apparatus (Harvard Apparatus) and perfused at a constant pressure of 80 mmHg with a modified Krebs-Henseleit buffer solution (Sigma K3753) and aerated with 95% oxygen and 5% carbon dioxide, pH 7.35-7.4. The temperature was maintained at 37° C. by surrounding the heart with a water-heated glassware chamber. Coronary flow was measured using a flow measurement system (Harvard Apparatus) which included the transit time flow meter and a flow probe built into an adaptor block located at the perfusate inflow port. Data were recorded continuously using an ISOHEART data acquisition system (Harvard Apparatus). After a 20-min equilibration period, Mas compounds were added to the perfusion buffer reservoir at the desired concentration (agonist AR234960 at 1 μM, or inverse agonist AR244555 at 5 μM) and coronary flow was recorded for 10 min

For assay [2], the system named is isolated perfused rat hearts. The assay is described as follows: Global ischemia-reperfusion in Langendorff perfused rat hearts (coronary flow, arrhythmias). How it is done: For ischemia-reperfusion experiments, Langendorff perfused rat hearts were equilibrated for 20 min and then baseline coronary flow was recorded for 10 min Thereafter, all hearts were subjected to 30 min of global ischemia by stopping perfusate flow, followed by 30 min of reperfusion with either vehicle (0.01% DMSO), Mas agonist AR234960 (1 μM) or Mas inverse agonist AR244555 (5 μM) added to the perfusion buffer. Electrocardiography was also continuously recorded during the observation period through electrodes attached directly to the surface of the ventricles to detect cardiac arrhythmias during reperfusion.

For assay [3], the system named is isolated perfused rat hearts. The assay is described as follows: Ex vivo coronary flow, Langendorff perfused isolated rat hearts. As to conditions: AR234960 1 μM. As for the experimental part: as §1
To determine the role of the Mas-Gq-PLC pathway in regulating coronary flow, the Mas inverse agonist AR244555 (5 μM) or the PLC inhibitor U-73122 (0.5 μM) was added to the perfusion buffer for 10 min and then the agonist AR234960 (1 μM) was added to the perfusion buffer. Coronary flow was recorded for another 10 min Changes in coronary flow induced by AR234960 were calculated as percentage of the coronary flow at 10 min following AR234960 treatment, relative to the coronary flow measured immediately prior to addition of AR234960. This protocol allowed for measurement of agonist mediated vasoconstrictor activity, and accounted for changes in baseline coronary flow due to inverse agonist treatment alone.
To determine whether Mas agonist-induced changes in coronary flow were endothelium-dependent, the responses in Langendorff perfused hearts were measured after chemical removal of endothelium with sodium deoxycholate. After a 20-min equilibration period, sodium deoxycholate was added to the perfusion buffer at 0.2 mg/mL for 3 min and then washed out for 10 min Mas compounds were added and coronary flow was recorded for 10 min Adenosine (1 μM), a coronary vasodilator that targets the endothelium, was used as a control to verify effective removal of endothelium.

In a further assay the test system is Male Sprague Dawley rats. As to the kind of experiment: Rat model of transient cerebral ischemia/stroke. It is filed as in vivo. To be noted: 3 mg/kg bolus i.v. 1 min prior to MCA occlusion or at the onset of reperfusion. How it is done:
Rats were anesthetized with pentobarbital (70 mg/kg). Normal body temperature was maintained by placing the animals on heating pads. A midline neck incision was made and soft tissues were pulled apart, and the external carotid artery (ECA), and internal carotid artery (ICA) were exposed. […] An incision was made around the left hind leg area and exposing the femoral vein. A 30-mm length of 3-0 monofilament nylon suture coated with 0.1% poly-lysine was inserted into the right ICA lumen through a small incision at about 4-mm proximal to the carotid bifurcation. The filament was advanced 18-22 mm from the start of the carotid bifurcation to block the origin of the right middle cerebral artery (MCA) for the ischemia time designed. Reperfusion was obtained by pulling out the occluding filament at the end of the MCA. After occlusion the tissues around the neck were closed with 4-0 silk suture (Ethicon, 1677G). The skin around the neck was closed with metal clips and the cutting area was treated with iodine. At the end of the reperfusion period (e.g. 24 h) the rats were anesthetized with Nembutal (70 mg/kg) and the brains were removed. […] Whole area (WA) and infarct area (IA) were measured for each coronal section. Brain damage was assessed by IA/(IA+WA). […]

Entries after “also recorded” stand apart in the source; their conditions may differ.

As for `COc1cc([N+](=O)[O-])ccc1S(=O)(=O)N1CC(CN2CCN(c3ccccn3)CC2)C(c2cccc(F)c2)C1` (stereo not drawn) [AR234960], the “effects in control HEK293 cells” value in the assay with control HEK293 cells is “There were detected effects”. Further, in assay [1], the “coronary flow, Mas knockout (Mas−/−) mouse hearts” value is “absent”; the “coronary flow, Mas+/+ mouse hearts” value was 64 % of baseline; the “coronary flow, wild type (Mas+/+) mouse hearts” value is on record as “decreased coronary flow significantly”. Moreover, the “frequency of prolonged ventricular arrhythmias during reperfusion” value in assay [2] (1 μM, three out of seven hearts) is recorded as 42.9%. Also, the “coronary flow during reperfusion compared to vehicle treated hearts” value in assay [2] (30 min global ischemia, 30 min reperfusion, AR234960 1 μM, AR244555 5 μM in perfusate during reperfusion) is “trend toward decreased coronary flow”. Further, the “coronary flow in isolated perfused rat hearts” value in assay [3] (AR244555 5 μM, 10 min) is given as “decrease in coronary flow; also recorded: significantly decreased”. Moreover, the “compound-mediated change in coronary flow in endothelium denuded hearts” value in assay [3] (after sodium deoxycholate, adenosine 1 μM) was “preserved”.

In the case of `NC(=O)[C@H](CO)NCc1ccc(C(=O)Nc2ccc(Cl)cc2N2CCN(CCC(F)(F)F)CC2)c(F)c1F` [Compound 170, (S)-4-((1-Amino-3-hydroxy-1-oxopropan-2-ylamino)methyl)-N-(4-chloro-2-(4-(3,3,3-trifluoropropyl)piperazin-1-yl)phenyl)-2,3-difluorobenzamide], the “brain damage associated with transient ischemic injury” value with Male Sprague Dawley rats is reported as “reduced brain damage”.
